Test results published in patent US10703765B2 (priority 2014, dated 2020).
Counter-ions that a name gives are not always drawn. Like-named read-outs stand apart in the source and are kept apart here.

Target: human σ1 receptor (Homo sapiens, UniProt Q99720)
Test: biochemical
Assay type: binding
Parameters: μ and σ1 dual binding: key to the marks not given beside the values
[1] = read-out: μ and σ1 dual binding

human σ1 receptor, sequence (Q99720 whole entry): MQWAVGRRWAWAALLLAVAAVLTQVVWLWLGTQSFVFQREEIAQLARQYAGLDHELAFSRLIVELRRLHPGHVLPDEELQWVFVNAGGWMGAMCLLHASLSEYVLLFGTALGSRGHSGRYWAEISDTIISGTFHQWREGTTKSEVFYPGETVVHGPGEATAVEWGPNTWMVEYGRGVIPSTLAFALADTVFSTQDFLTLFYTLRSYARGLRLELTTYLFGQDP

| Compound | Ki [1] | other results |
| --- | --- | --- |
| C[C@@H]1OC2(CCN(CCc3ccccc3F)CC2)CN(c2cnccc2C(F)(F)F)C1=O.Cl [Example 127a, (S)-9-(2-fluorophenethyl)-2-methyl-4-(4-(trifluoromethyl)pyridin-3-yl)-1-oxa-4,9-diazaspiro[5.5]undecan-3-one hydrochloride] |  | μ and σ1 dual binding: ++ |
| C[C@H]1OC2(CCN(CCc3ccccc3F)CC2)CN(c2cnccc2C(F)(F)F)C1=O [Example 127b, (R)-9-(2-fluorophenethyl)-2-methyl-4-(4-(trifluoromethyl)pyridin-3-yl)-1-oxa-4,9-diazaspiro[5.5]undecan-3-one hydrochloride] | < 100 nM |  |
| CC1OC2(CCN(CC(=O)N3CCCCC3)CC2)CN(Cc2ccc(C(F)(F)F)cn2)C1=O (centres unmarked) [Example 128, 2-methyl-9-(2-oxo-2-(piperidin-1-yl)ethyl)-4-((5-(trifluoromethyl)pyridin-2-yl)methyl)-1-oxa-4,9-diazaspiro[5.5]undecan-3-one hydrochloride] | > 500 nM |  |
| CC1OC2(CCN(CC(=O)N3CCCCC3)CC2)CN(c2ccccc2)C1=O (centres unmarked) [Example 129, 2-methyl-9-(2-oxo-2-(piperidin-1-yl)ethyl)-4-phenyl-1-oxa-4,9-diazaspiro[5.5]undecan-3-one] | > 500 nM |  |
| CC1OC2(CCN(CCc3ccccc3F)CC2)CN(c2cccnc2C(F)(F)F)C1=O (centres unmarked) [Example 130, 9-(2-fluorophenethyl)-2-methyl-4-(2-(trifluoromethyl)pyridin-3-yl)-1-oxa-4,9-diazaspiro[5.5]undecan-3-one dihydrochloride] | < 500 nM |  |
| CC1OC2(CCN(CCC3CCOCC3)CC2)CN(c2ccccc2)C1=O.Cl (centres unmarked) [Example 131, 2-methyl-4-phenyl-9-(2-(tetrahydro-2H-pyran-4-yl)ethyl)-1-oxa-4,9-dizaspiro[5.5]undecan-3-one hydrochloride] |  | μ and σ1 dual binding: ++ |
| COc1cccc(CCN2CCC3(CC2)CN(c2ccccc2)C(=O)CO3)c1 [Example 132, 9-(3-methoxyphenethyl)-4-phenyl-1-oxa-4,9-diazaspiro[5.5]undecan-3-one] | < 500 nM |  |
| CC1OC2(CCN(CCc3ccncc3)CC2)CN(c2ccccc2)C1=O.Cl (centres unmarked) [Example 133, 2-methyl-4-phenyl-9-(2-(pyridin-4-yl)ethyl)-1-oxa-4,9-diazaspiro[5.5]undecan-3-one hydrochloride] |  | μ and σ1 dual binding: ++ |
| COCC1OC2(CCN(CCc3ccccn3)CC2)CN(c2ccccc2F)C1=O.Cl (centres unmarked) [Example 134, 4-(2-fluorophenyl)-2-(methoxymethyl)-9-(2-(pyridin-2-yl)ethyl)-1-oxa-4,9-diazaspiro[5.5]undecan-3-one hydrochloride] |  | μ and σ1 dual binding: ++ |
| COCC1OC2(CCN(CCc3ccccc3OC)CC2)CN(c2ccccc2F)C1=O (centres unmarked) [Example 135, 4-(2-fluorophenyl)-2-(methoxymethyl)-9-(2-methoxyphenethyl)-1-oxa-4,9-diazaspiro[5.5]undecan-3-one] |  | μ and σ1 dual binding (combined class from Ki-σ1 (human σ1 receptor, A1) and Ki-μ (human μ-opioid receptor, A2) radioligand binding): ++ |
| COCC1OC2(CCN(CCc3ccccc3F)CC2)CN(c2ccccc2F)C1=O (centres unmarked) [Example 136, 9-(2-fluorophenethyl)-4-(2-fluorophenyl)-2-(methoxymethyl)-1-oxa-4,9-diazaspiro[5.5]undecan-3-one hydrochloride] |  | Ki: < 500 nM |
| COc1ccccc1CCN1CCC2(CC1)CN(c1ccccc1F)C(=O)C(C(C)C)O2 (centres unmarked) [Example 137, 4-(2-fluorophenyl)-2-isopropyl-9-(2-methoxyphenethyl)-1-oxa-4,9-diazaspiro[5.5]undecan-3-one hydrochloride] |  | Ki: < 100 nM |
| c1ccc(CN2CCOC3(CCN(CCc4ccccn4)CC3)C2)cc1 [Example 138, 4-benzyl-9-(2-(pyridin-2-yl)ethyl)-1-oxa-4,9-diazaspiro[5.5]undecane hydrochloride] | < 100 nM |  |
| CC(C)=C1OC2(CCN(CCc3ccccn3)CC2)CN(c2ccccc2F)C1=O [Example 139] | > 500 nM |  |
| CC1OC2(CCN(CCc3csc(NC(=O)OC(C)(C)C)n3)CC2)CN(c2ccccc2F)C1=O (centres unmarked) [Example 140, tert-butyl (4-(2-(4-(2-fluorophenyl)-2-methyl-3-oxo-1-oxa-4,9-diazaspiro[5.5]undecan-9-yl)ethyl)thiazol-2-yl)carbamate] | > 500 nM |  |
| CC(C)=C1OC2(CCN(CCc3scnc3C)CC2)CN(c2ccccc2F)C1=O [Example 141, 4-(2-fluorophenyl)-9-(2-(4-methylthiazol-5-yl)ethyl)-2-(propan-2-ylidene)-1-oxa-4,9-diazaspiro[5.5]undecan-3-one hydrochloride] | < 500 nM |  |
| COCCC=C1OC2(CCN(CCc3ccccc3)CC2)CN(c2ccccc2F)C1=O [Example 142, 4-(2-fluorophenyl)-2-(3-methoxypropylidene)-9-phenethyl-1-oxa-4,9-diazaspiro[5.5]undecan-3-one] |  | Ki: < 500 nM |
| CCOC(=O)c1cccc(CCN2CCC3(CC2)CN(c2ccccc2F)C(=O)C(C)O3)c1 (centres unmarked) [Example 143, ethyl 3-(2-(4-(2-fluorophenyl)-2-methyl-3-oxo-1-oxa-4,9-diazaspiro[5.5]undecan-9-yl)ethyl)benzoate] | > 500 nM |  |
| CC1OC2(CCN(CCC(=O)Nc3ccccc3)CC2)CN(c2ccccc2)C1=O (centres unmarked) [Example 144, 3-(2-methyl-3-oxo-4-phenyl-1-oxa-4,9-diazaspiro[5.5]undecan-9-yl)-N-phenylpropanamide hydrochloride] | < 500 nM |  |

| Compound | Ki [1] | other results |
| --- | --- | --- |
| CC1OC2(CCN(CCOc3cccnc3)CC2)CN(c2ccccc2)C1=O (centres unmarked) [Example 145, 2-methyl-4-phenyl-9-(2-(pyridin-3-yloxy)ethyl)-1-oxa-4,9-diazaspiro[5.5]undecan-3-one hydrochloride] | > 500 nM |  |
| CC1OC2(CCN(CCN3CCCC3=O)CC2)CN(c2ccccc2)C1=O (centres unmarked) [Example 146, 2-methyl-9-(2-(2-oxopyrrolidin-1-yl)ethyl)-4-phenyl-1-oxa-4,9-diazaspiro[5.5]undecan-3-one] | > 500 nM |  |
| CC1OC2(CCN(CCc3cn[nH]c3)CC2)CN(c2ccccc2)C1=O (centres unmarked) [Example 147, 9-(2-(1H-pyrazol-4-yl)ethyl)-2-methyl-4-phenyl-1-oxa-4,9-diazaspiro[5.5]undecan-3-one] | > 500 nM |  |
| COc1ccc(CN2CC3(CCN(CCc4ccccc4F)CC3)OC3(CC3)C2=O)cc1 [Example 148, 8-(2-fluorophenethyl)-12-(4-methoxybenzyl)-4-oxa-8,12-diazadispiro[2.1.5.3]tridecan-13-one] | > 500 nM |  |
| Cl.O=C1COC2(CCN(CCc3ccccc3)C2)CN1c1ccccc1 (centres unmarked) [Example 149, 2-phenethyl-9-phenyl-6-oxa-2,9-diazaspiro[4.5]decan-8-one hydrochloride] |  | μ and σ1 dual binding: ++ |
| C[C@H]1OC2(CCN(C[C@H](O)c3ccccc3)CC2)CN(c2ccccc2)C1=O [Example 151a, (R)-9-((R)-2-hydroxy-2-phenylethyl)-2-methyl-4-phenyl-1-oxa-4,9-diazaspiro[5.5]undecan-3-one] |  | Ki: < 500 nM |
| C[C@H]1OC2(CCN(C[C@@H](O)c3ccccc3)CC2)CN(c2ccccc2)C1=O [Example 151b, (R)-9-((S)-2-hydroxy-2-phenylethyl)-2-methyl-4-phenyl-1-oxa-4,9-diazaspiro[5.5]undecan-3-one] |  | Ki: < 500 nM |
| C[C@@H]1OC2(CCN(C[C@@H](O)c3ccccc3)CC2)CN(c2ccccc2)C1=O [Example 151c, (S)-9-((S)-2-hydroxy-2-phenylethyl)-2-methyl-4-phenyl-1-oxa-4,9-diazaspiro[5.5]undecan-3-one] |  | Ki: < 500 nM |
| C[C@@H]1OC2(CCN(C[C@H](O)c3ccccc3)CC2)CN(c2ccccc2)C1=O [Example 151d, (S)-9-((R)-2-hydroxy-2-phenylethyl)-2-methyl-4-phenyl-1-oxa-4,9-diazaspiro[5.5]undecan-3-one] |  | Ki: < 500 nM |
| CC1OC2(CCN(CCc3ccccc3)CC2)CN(Cc2ccccc2)C1=O (centres unmarked) [Example 152, 4-benzyl-2-methyl-9-phenethyl-1-oxa-4,9-diazaspiro[5.5]undecan-3-one hydrochloride] | < 100 nM |  |
| O=C1COC2(CCN(CCc3ccccc3)CC2)CN1Cc1ccccc1 [Example 153, 4-benzyl-9-phenethyl-1-oxa-4,9-diazaspiro[5.5]undecan-3-one hydrochloride] | < 100 nM |  |
| CC1OC2(CCN(CCc3ccccc3)CC2)CN(Cc2ccccc2F)C1=O (centres unmarked) [Example 154, 4-(2-fluorobenzyl)-2-methyl-9-phenethyl-1-oxa-4,9-diazaspiro[5.5]undecan-3-one hydrochloride] | < 100 nM |  |
| CC1OC2(CCN(CCc3ccccc3)CC2)CN(Cc2cccc(F)c2)C1=O (centres unmarked) [Example 155, 4-(3-fluorobenzyl)-2-methyl-9-phenethyl-1-oxa-4,9-diazaspiro[5.5]undecan-3-one hydrochloride] |  | Ki: < 100 nM |
| CC1OC2(CCN(CCc3ccccc3)CC2)CN(Cc2ccccn2)C1=O (centres unmarked) [Example 157, 2-methyl-9-phenethyl-4-(pyridin-2-ylmethyl)-1-oxa-4,9-diazaspiro[5.5]undecan-3-one hydrochloride] |  | Ki: < 100 nM |
| CC1OC2(CCN(CCc3ccccc3)CC2)CN(Cc2ccc(F)cc2)C1=O (centres unmarked) [Example 158, 4-(4-fluorobenzyl)-2-methyl-9-phenethyl-1-oxa-4,9-diazaspiro[5.5]undecan-3-one hydrochloride] | < 100 nM |  |
| CC1OC2(CCN(CCc3ccccc3)CC2)CN(Cc2cccnc2)C1=O (centres unmarked) [Example 159, 2-methyl-9-phenethyl-4-(pyridin-3-ylmethyl)-1-oxa-4,9-diazaspiro[5.5]undecan-3-one hydrochloride] |  | Ki: < 100 nM |
| CC1OC2(CCN(CCc3ccccc3)CC2)CN(Cc2nccs2)C1=O (centres unmarked) [Example 160, 2-methyl-9-phenethyl-4-(thiazol-2-ylmethyl)-1-oxa-4,9-diazaspiro[5.5]undecan-3-one hydrochloride] |  | Ki: < 100 nM |
| CC1OC2(CCN(CCc3ccccc3)CC2)CN(Cc2cncs2)C1=O (centres unmarked) [Example 161, 2-methyl-9-phenethyl-4-(thiazol-5-ylmethyl)-1-oxa-4,9-diazaspiro[5.5]undecan-3-one hydrochloride] | < 500 nM |  |
| CC1OC2(CCN(CCc3ccccc3)CC2)CN(Cc2ccncc2)C1=O (centres unmarked) [Example 162, 2-methyl-9-phenethyl-4-(pyridin-4-ylmethyl)-1-oxa-4,9-diazaspiro[5.5]undecan-3-one] | < 500 nM |  |
